Test results: paper PMC3330111, “Computational Design of a PDZ Domain Peptide Inhibitor that Rescues CFTR Activity” (PLoS Computational Biology, 2012)
Entries after “also recorded” stand apart in the source; their conditions may differ. Each block holds one compound with its values, some of them ahead of it. Ends that are not written are not given here.

Legend:
ΔF508-CFTR chloride flux [1] = details: CFBE-ΔF cells, identical experimental conditions; ref [1]; cited from earlier work
Source text: While this effect is clearly statistically significant ( ), we also wished to assess its magnitude relative to the effect of known rescue compounds. The performance of kCAL01 was benchmarked using polarized human airway epithelial cells derived from a CF patient (stably expressing ΔF508-CFTR; CFBE- F cells). In these cells, CFTR rescue is more challenging than in heterologous cells, but the levels of rescue observed are more likely to reflect the physiological situation. Since CFTR modulation is extremely sensitive to experimental con ...

CAL PDZ domain [2] = target: T1, CAL PDZ domain (Homo sapiens, UniProt Q9HD26); experiment: fluorescence polarization (FP) competition binding; details: for Ki: FP competition, compared with best previously known hexamer (iCAL35), read-out: Experimental Ki, mark †
Source text: The inhibitor dissociation constants of top- and poorly-ranked peptide sequences from the [drawing 176] CAL-CFTR design were experimentally determined. As a control, the best known peptide hexamer was also retested. The corresponding N-terminally acetylated peptides were purchased from NEO BioScience (Cambridge, MA) and the [drawing 177] values for the peptides were detected using fluorescence polarization (FP), using the method previously described in [59]. […] Each peptide inhibitor was serially diluted and the protein-peptide mixture was added to each dilution. Finally, the amount of competitive inhibition was tracked using residual fluorescence polarization at temperatures between [drawing 178] . Each [drawing 179] value is reported as an average of three FP experiments conducted on separate days along with the corresponding standard deviation.

ΔF508-CFTR chloride flux [3] = experiment: Ussing chamber chloride flux in CFBE-ΔF cells; type: cell-based, human; details: polarized CFBE-ΔF monolayers, 3.5 hour incubation; for improvement in chloride secretion with respect to control peptide kCAL31: peptide delivered with BioPORTER, change in short circuit current on CFTR-specific inhibitor after amiloride, forskolin, genistein
Procedure: Ussing chamber experiments were performed as described previously. Polarized monolayers of patient-derived bronchial epithelial cells, CFBE- [drawing 180] F cells (a generous gift of Dr. J.P. Clancy, [63]), were maintained in MEM with 2 mM l-glutamine, 10% fetal bovine serum, 50 units/mL penicillin, [drawing 181] streptomycin, [drawing 182] puromycin, [drawing 183] plasmocin, and [drawing 184] amphotericin B. Cells were grown at [drawing 185] in 5% [drawing 186] . Twenty four hours before treatment the cells were moved to MEM with only penicillin and streptomycin. Peptides were dissolved in DMSO and diluted to [drawing 187] in PBS. Peptide solutions were applied to cells following incubation with BioPORTER delivery reagent (Sigma). […] Following a 3.5 hour incubation with peptide, short circuit currents ( [drawing 188] ) were monitored in Ussing chambers. Following treatment with amiloride, forskolin, and genistein, ΔF508-CFTR chloride flux was measured as the change in [drawing 189] when the CFTR-specific inhibitor, [drawing 190] [64], [65], was applied to the cell monolayer. All measurements were performed at [drawing 191] .

CAL PDZ domain [4] = target: T1, CAL PDZ domain; experiment: ProLib profile library SPOT array; type: binding; details: 10 µg/ml His-tagged CAL PDZ domain, anti-His/anti-mouse-HRP detection
Procedure: After the [drawing 124] predictions were calculated, the binding of C-termini peptides to CAL was also experimentally assessed using an additional SPOT array. The profile library array (ProLib; Fig. S3 in Text S1) was designed based on the following motif: bbbb [drawing 125] (B = permutation of a defined set of amino acids, b = mixture of 17 amino acids, without C, M and W). The defined set of amino acids were selected based on the HumLib results combined with substitutional analyses with [drawing 126] = A/C/D/E/F/I/K/L/M/N/Q/R/S/T/V/W/Y, [drawing 127] = S/T, [drawing 128] = A/C/D/E/F/I/K/L/M/N/Q/R/S/T/V/W/Y, [drawing 129] = I/L/V (Total number of peptides = 1734+22 internal control sequences). Incubation condition: [drawing 130] His-tagged CAL PDZ domain detected by anti-His (Sigma; 1∶2600)/anti-mouse-HRP (Calbiochem; 1∶2000) antibody sandwich.
Fig. S3. CAL binding data for ProLib spot array. We selected the amino acid prefer-ences of the last 4 C-terminal ligand residues based on their frequency deduced from the 6223-Humlib and the substitutional analysis. […] Incubation condition: 10 µg/ml His-tagged CAL PDZ domain detected by anti-His (Sigma; 1:2600)/anti-mouse-HRP (Calbiochem; 1:2000) antibody sand- […]

Compound: COc1ccc(Cl)cc1Nc1nc(-c2sc(NC(=O)c3ccccc3)nc2C)cs1 [corr-4a]
increase in ΔF508-CFTR levels (ΔF508-CFTR chloride flux [1]): 15%

Compound: Ac-WQDSGI [kCAL31]
Experimental Ki (inhibitor dissociation constant) (CAL PDZ domain [2]; FP competition with labeled peptide, 25 mM Tris-HCl pH 8.5, 150 mM NaCl, 0.1 mg/mL bovine IgG, 0.5 mM Thesit, average of three FP experiments on separate days): no binding was detected; also recorded: no CAL binding detected

Ki (CAL PDZ domain [2]): < 14 µM
Compound: Ac-WQFTRL [kCAL02, Ac-WQFTRL]

Ki (CAL PDZ domain [2]): < 14 µM
Compound: Ac-WQKTRI [kCAL05, Ac-WQKTRI]

Ki (CAL PDZ domain [2]): < 14 µM
Compound: Ac-WQKTRL [kCAL03, Ac-WQKTRL]

Ki (CAL PDZ domain [2]): < 14 µM
Compound: Ac-WQRTRL [kCAL04, Ac-WQRTRL]

Compound: Ac-WQVTRV [kCAL01, Ac-WQVTRV]
binding efficiency (ratio of inhibitor potency, ΔG, to molecular mass) relative to F*-iCAL36 (CAL PDZ domain [2]): approximately twice
improvement in CAL binding affinity compared to iCAL35 (CAL PDZ domain [2]; FP): six-fold
improvement in CAL binding affinity over HumLib01 (CAL PDZ domain [2]; FP): six-fold
Ki (CAL PDZ domain [2]): < 14 µM
fold higher affinity than any comparable natural ligand (CAL PDZ domain [2]; versus best known natural ligand ANGLMQTSKL): 9 fold
fold tighter binding to CAL than the CFTR C-terminus (CAL PDZ domain [2]; versus wild-type CFTR sequence TEEEVQDTRL): 170 fold
improvement in chloride secretion with respect to reference peptide iCAL35 (ΔF508-CFTR chloride flux [3]; BioPORTER delivery): 8%
improvement in chloride secretion with respect to control peptide kCAL31 (ΔF508-CFTR chloride flux [3]): 12%

improvement in CAL binding affinity compared to iCAL35 (CAL PDZ domain [2]; FP): only a marginal improvement
CAL binding in ProLib array (CAL PDZ domain [4]): strongest binder
Compound: WQSTRL [HumLib01]

Compound: WQTSII [iCAL35, reference compound]
improvement in chloride secretion with respect to control peptide kCAL31 (ΔF508-CFTR chloride flux [3]): 4%
